Measurements taken from patent EP4600262A1, “KERATIN YK93-5, PREPARATION METHOD, AND PHARMACEUTICAL COMPOSITION AND USE THEREOF” (INSTITUTE OF MATERIA MEDICA, CHINESE ACADEMY OF MEDICAL …, priority 2022, dated 2024).
Where a name gives a salt, the structure may show the parent alone.

Columns and labels:
B16F10 melanoma = conditions: CTX 0.1 g/kg once a week, YK93-5 2 g/kg daily
Description: • Preparation of experimental animals: The experimental animals were adapted to the experimental environment (temperature 22°C±2°C, relative humidity 50%±2%) for 1 day. • Subcutaneous inoculation of B16F10 cell suspension to replicate a mouse melanoma model: Under sterile conditions, the tumor block was removed, ground into tumor fluid, the concentration was adjusted with physiological saline to 2.58 × 10^6 /ml, and 0.2 ml was taken to evenly inoculate subcutaneously on the armpit back of mice. On the next day, the animals were randomly grouped and administration began (recorded as Day 0). […] On the day of treatment, weight was measured, 20µL of blood was obtained by taking blood from the eye socket and the blood routine analysis was performed, the tumor block was peeled off, weighed and photographed, and the tumor suppression rate was calculated.
The tumor suppression rate [(The average weight of the tumor in the normal control group - the average weight of the tumor in the experimental group) / The average weight of the tumor in the normal control group × 100 %] and average value, standard deviation and standard errors of tumor weight were calculated. The data from the groups were compared with each other by T.TEST, and P<0.05 was considered as a significant difference.

[1] = tested on: mouse prostatic hyperplasia model; assay: mouse prostatic hyperplasia model (propionate testosterone, androgen loading); assay type: in vivo, Male Kunming mice; conditions: finasteride 1mg/kg, YK93-5 0.5g/kg
Description: • Animals: Male Kunming mice, weight: 18-20 grams • Drugs: propionate testosterone injection (Ningbo Second Hormon Factory); finasteride (Merck Sharp & Dohme, MSD), YK93-5 • Instruments: electronic balance, timer
• Normal control group; • Model group: Androgen loading Model; • Positive control group: finasteride (1mg/kg) group; • YK93-5 (0.5g/kg) group.
• Preparation of experimental animals: The experimental animals were adapted to the experimental environment (temperature 22°C±2°C, relative humidity 50%±2%) for 1 day. • Subcutaneous injection of propionate testosterone to replicate mice prostatic hyperplasia model: Mice were randomly grouped 10-12 in each group before the model being established. Propionate testosterone (0.01mg/kg) in soybean oil was injected subcutaneously, once a day for 30 consecutive days. Mice in the normal control group were injected subcutaneously with an equal volume of sodium carboxymethyl cellulose. Immediately after the model was established, finasteride 1mg/kg, or YK93-5 0.5g/kg were orally administered. Mice were weighed on the next day. After 30 days of administration, mice were weighed, executed. The prostate was excised through a median incision in the lower abdomen, the wet weight was weighed, and the prostate index was calculated by the wet weight of the prostate (mg)/body weight of the mouse (g). […] with 4% paraformaldehyde, embedded in paraffin, and cut into thin slices with the largest surface. Hematoxylin and eosin staining were used to examine the pathological changes of tissue slices.
The average value, standard deviation and standard error of the prostate index and pathological score in each group were calculated. The data from the groups were compared with each other by TTEST, and P<0.05 was considered as a significant difference.

mouse pain model = mouse pain model (1% acetic acid writhing); assay type: in vivo, Male Kunming mice; conditions: within 15 minutes after 1% acetic acid intraperitoneally; Tramadol Hydrochloride 50mg/kg, YK93-5 2g/kg by gavage once a day for 7 days
Description: 30 minutes after the last administration, 1% acetic acid was administered intraperitoneally, and the writhing times of mice within 15 minutes was recorded, and the inhibition rate of drug-induced writhing reaction was calculated. The observation criteria were concave abdominal cavity, extended hind limbs, and raised buttocks.
The inhibition rate was calculated by (Mean number of writhing reactions in the normal control group - Mean number of writhing reactions in the treatment group)/Mean number of writhing reactions in the normal control group *100%. The mean value, standard deviation, and standard error of the number of writhing was recorded, and the data from the groups were compared with each other by T.TEST, and P<0.05 was considered as a significant difference.

Description for Lewis lung cancer: • Preparation of experimental animals: The experimental animals were adapted to the experimental environment (temperature 22°C±2°C, relative humidity 50%±2%) for 1 day. • Subcutaneous inoculation of Lewis cell suspension to replicate mouse breast cancer model: The Lewis tumor tissue was ground into a suspension with a glass homogenizer, the tumor suspension was aspirated with a syringe, the number of live cells was calculated, the concentration of the cells was adjusted to 2.6*10^6/ml with physiological saline, and then the suspension was injected to the left armpit of the mouse with 0.2 ml/mouse. […] On the day of the treatment, the weight was measured, 20µl of blood was obtained from the orbital blood and the routine blood analysis was performed. The tumor blocks were stripped, weighed and photographed, and the tumor suppression rate was calculated.
The tumor suppression rate [(The average weight of the tumor in the normal control group - the average weight of the tumor in the experimental group) / The average weight of the tumor in the normal control group × 100 %] and the average value, standard deviation and standard errors of tumor weight were calculated. The data from the groups were compared with each other by T.TEST, and P<0.05 was considered as a significant difference.

SMILES: O=P1(N(CCCl)CCCl)NCCCO1 (centres unmarked) [Cyclophosphamide]
- Tumor weight (B16F10 melanoma): 0.26 ± 0.11 g
- Change of weight (g) After administration (Lewis lung cancer; body weight after administration, cyclophosphamide 0.1 g/kg intraperitoneally single time, YK93-5 2 g/kg intragastric daily for 17 days): 21.07 ± 1.61 g
- Change of weight (g) Before administration (Lewis lung cancer; body weight before administration): 20.52 ± 1.83 g
- Tumor suppression (%) (Lewis lung cancer; cyclophosphamide 0.1 g/kg intraperitoneally single time, YK93-5 2 g/kg intragastric daily for 17 days): 91.22%

SMILES: CC(C)(C)NC(=O)[C@H]1CC[C@H]2[C@@H]3CC[C@H]4NC(=O)C=C[C@]4(C)[C@H]3CC[C@]12C [finasteride]
- wet weight of the prostate ([1]; after 30 days of oral administration): 40.4 ± 9.2 mg
- pathological damage of prostatic hyperplasia (histopathology, H&E) ([1]; compared with the model group, 30 days oral): the trend of hyperplasia improves, but there is no statistical difference
- prostate index ([1]; wet weight of the prostate (mg)/body weight of the mouse (g), 30 days oral): 0.95±0.24

SMILES: COc1cccc(C2(O)CCCCC2CN(C)C)c1 (centres unmarked) [Tramadol Hydrochloride]
- Number of writhing (mouse pain model): 1.75±4.56
